Measured values published in ChEMBL document CHEMBL2346553, “Synthesis and evaluation of non-dimeric HCV NS5A inhibitors” (Bioorg Med Chem Lett, 2013).

Columns and labels:
in vitro [1] = settings: human, pbmc
Hepatitis C virus = experiment: microbe, parasite or virus in culture; settings: genotype 1b, Huh-7
in vitro [2] = settings: human, CEM cells
in vitro [3] = settings: human, HuH7 cells
in vitro [4] = settings: chlorocebus sabaeus, Vero cells

| Structure (SMILES) | CC50 (in vitro [1]) | EC50 (Hepatitis C virus) | CC50 (in vitro [2]) | CC50 (in vitro [3]) | CC50 (in vitro [4]) | EC90 (Hepatitis C virus) |
| --- | --- | --- | --- | --- | --- | --- |
| COC(=O)N[C@H](C(=O)N1CCC[C@H]1c1ncc(-c2ccc(-c3ccccc3C(F)(F)F)cc2)[nH]1)C(C)C | 24 µM | > 0.1 µM | 75 µM | > 1 µM | 13 µM |  |
| COC(=O)N[C@H](C(=O)N1CCC[C@H]1c1ncc(-c2ccc(-c3cccc(C(F)(F)F)c3)cc2)[nH]1)C(C)C | 44 µM | > 0.1 µM | 32 µM | > 1 µM | 12 µM |  |
| COC(=O)N[C@H](C(=O)N1CCC[C@H]1c1ncc(-c2ccc(-c3ccc(OC(F)(F)F)cc3)cc2)[nH]1)C(C)C | 11 µM | > 0.1 µM | 10 µM | > 1 µM | 10 µM |  |
| COC(=O)N[C@H](C(=O)N1CCC[C@H]1c1ncc(-c2ccc(-c3ccc(O)cc3)cc2)[nH]1)C(C)C | 70 µM | 0.005 µM | 55 µM | > 1 µM | 13 µM | 0.017 µM |
